Measured values taken from patent US20130023504A1, “Modulation of Prostaglandin/Cyclooxygenase Metabolic Pathways” (HUNTER-FLEMING LIMITED, priority 2006, published 2013).
Marks after values point to notes of the source that are not given here.

Key:
[1] = tested on: human PBMC; assay: PG levels (PGE2, PGD2, 15d-PGJ2) in culture medium of human PBMC cultured with and without TNF-α, EIA (Example 3); type: cell-based
Description: (§1) Whole blood was collected from donors in EDTA-supplemented pouches at the Etablissement Français du Sang (Brest, France). The PBMC were isolated then from whole blood under sterile conditions within 36 hours after collection. Gradient density centrifugation was carried out on Ficoll (Eurobio). After washing in RPMI 1640 medium (Eurobio), cells were suspended in RPMI 1640 medium supplemented with 10% heat-inactivated fetal calf serum (Eurobio), 2 mM glutamine (D. Dutscher), 100 U of penicillin/ml (D. Dutscher), and 100 μg of streptomycin/ml (D. Dutscher). Monocytes were selected by plastic adherence for 1 h and approximately 10^7 cells were plated in 6-well tissue culture plates (3 mL medium per well). All incubations were performed in a humidified incubator at 37° C. and 5% CO2. Cells were recovered and dispersed in 2 ml fresh incubation medium supplemented with either 7β-hydroxyEPIA, 7β-hydroxy-DHEA, or 7α-hydroxy-DHEA (in 20 μL ethanol) in the presence or absence of 0.01 μg/mL TNF-α (Sigma-Aldrich). Control incubations contained 20 μl ethanol but no steroid. Supernatants were collected after 4 h and 24 hours incubations for measurement of their PG contents and cells were used for subsequent RNA isolation. A single step extraction method using the Trizol Reagent (Invitrogen, Cergy-Pontoise, France) provided total RNA.
Commercially available EIA kits were used for the determination of PGE2 levels (Oxford Biomedical Research, UK) and 15d-PGJ2 levels (Assay designs, Euromedex, France) in culture media. Measurement of PGD2 levels was obtained using the prostaglandin D2-MOX EIA kit (Cayman Chemical, Euromedex). In this case, and prior to assay, the fresh samples were immediately treated with the MOX-HCl reagent, which converted PGD2 into PGD2-MOX, thus preventing any further chemical degradation.
(§2) All assays were carried out in triplicate and results were plotted as mean±S.E.M. One-way analysis of variance was performed followed by Duncan's multiple range tests in order to compare the differences between groups. Differences were considered statistically significant when p<0.05.

[2] = tested on: m-PGES1 mRNA; assay: m-PGES1 mRNA in human PBMC with and without TNF-α, quantitative RT-PCR; type: cell-based
Description: as §1
cDNAs were synthesized from TURBO DNase I—treated RNA (Ambion, Huntingdon, UK) using the Superscript first strand synthesis system kit (Invitrogen). RT-PCR amplification mixtures (50 μL) contained 2.5× RealMaster Mix/20×SYBR solution (11.25 μL) (Eppendorf, Le Pecq, France) and 200 nM forward and reverse primers. Reactions were run on a RealPlex ep gradient S mastercycler (Eppendorf). The cycling conditions were 10 minutes at 95° C. and 45 cycles at 95° C., 55° C. and 68° C. for 15 seconds, 30 seconds and 30 seconds, respectively. Each assay included a standard curve of four serial dilution points of control cDNA. The HPRT1 housekeeping gene was used for quantification. All oligonucleotide primers (Table 2) were synthesized by Genecust/Distribio (Evry, France). The specificity of the amplified product was monitored by examining the melting curve of the product and confirmed by analysis on agarose gel electrophoresis.
as §2

[3] = 100 nM + TNF-α (10 ng/mL), 24 h

For `CC12CCC3C(C1CCC2=O)[C@@H](O)C[C@H]1C[C@@H](O)CCC31C` (stereo partly drawn) [Compound 7β-OH-EPIA, 7β-hydroxy-EPIAndrosterone], the 15d-PGJ2 ([1]; 1 nM + TNF-α (10 ng/mL), 4 h) was 0.37 ± 0.029 ng/mL, the PGD2 ([1]; 1 nM + TNF-α (10 ng/mL), 4 h) was 0.22 ± 0.082 ng/mL and the PGE2 ([1]; 1 nM + TNF-α (10 ng/mL), 4 h) was 0.50 ± 0.012 ng/mL. For the same compound, the 15d-PGJ2 ([1]; 1 nM + TNF-α (10 ng/mL), 24 h) was 2.18 ± 0.183^c ng/mL, the PGD2 ([1]; 1 nM + TNF-α (10 ng/mL), 24 h) was 0.47 ± 0.013^d ng/mL and the PGE2 ([1]; 1 nM + TNF-α (10 ng/mL), 24 h) was 0.70 ± 0.001^b ng/mL. For the same compound, the 15d-PGJ2 ([1]; 1 nM, 4 h, without TNF-α) was 0.39 ± 0.080 ng/mL, the PGD2 ([1]; 1 nM, 4 h, without TNF-α) was 0.18 ± 0.005 ng/mL and the PGE2 ([1]; 1 nM, 4 h, without TNF-α) was 0.26 ± 0.011 ng/mL. For the same compound, the 15d-PGJ2 ([1]; 1 nM, 24 h, without TNF-α) was 0.85 ± 0.014^a ng/mL, the PGD2 ([1]; 1 nM, 24 h, without TNF-α) was 0.21 ± 0.012^a ng/mL and the PGE2 ([1]; 1 nM, 24 h, without TNF-α) was 0.26 ± 0.015 ng/mL. The 15d-PGJ2 ([1]; 10 nM + TNF-α (10 ng/mL), 4 h) was 0.40 ± 0.007 ng/mL, the PGD2 ([1]; 10 nM + TNF-α (10 ng/mL), 4 h) was 0.22 ± 0.010 ng/mL and the PGE2 ([1]; 10 nM + TNF-α (10 ng/mL), 4 h) was 0.49 ± 0.021 ng/mL. For the same compound, the 15d-PGJ2 ([1]; 10 nM + TNF-α (10 ng/mL), 24 h) was 2.77 ± 0.021^c ng/mL, the PGD2 ([1]; 10 nM + TNF-α (10 ng/mL), 24 h) was 0.42 ± 0.009^d ng/mL and the PGE2 ([1]; 10 nM + TNF-α (10 ng/mL), 24 h) was 0.80 ± 0.012^b ng/mL. For the same compound, the 15d-PGJ2 ([1]; 10 nM, 4 h, without TNF-α) was 0.39 ± 0.010 ng/mL, the PGD2 ([1]; 10 nM, 4 h, without TNF-α) was 0.19 ± 0.020 ng/mL and the PGE2 ([1]; 10 nM, 4 h, without TNF-α) was 0.23 ± 0.022 ng/mL. For the same compound, the 15d-PGJ2 ([1]; 10 nM, 24 h, without TNF-α) was 0.91 ± 0.032^a ng/mL, the PGD2 ([1]; 10 nM, 24 h, without TNF-α) was 0.23 ± 0.001^a ng/mL and the PGE2 ([1]; 10 nM, 24 h, without TNF-α) was 0.23 ± 0.021 ng/mL. The 15d-PGJ2 ([1]; 100 nM + TNF-α (10 ng/mL), 4 h) was 0.37 ± 0.016 ng/mL, the PGD2 ([1]; 100 nM + TNF-α (10 ng/mL), 4 h) was 0.23 ± 0.007 ng/mL and the PGE2 ([1]; 100 nM + TNF-α (10 ng/mL), 4 h) was 0.42 ± 0.020 ng/mL. The 15d-PGJ2 [1, 3] was 0.85 ± 0.019^ ng/mL, the PGD2 [1, 3] was 0.40 ± 0.030^d ng/mL and the PGE2 [1, 3] was 0.71 ± 0.012^b ng/mL. For the same compound, the 15d-PGJ2 ([1]; 100 nM, 4 h, without TNF-α) was 0.37 ± 0.018 ng/mL, the PGD2 ([1]; 100 nM, 4 h, without TNF-α) was 0.20 ± 0.013 ng/mL and the PGE2 ([1]; 100 nM, 4 h, without TNF-α) was 0.22 ± 0.020 ng/mL. The 15d-PGJ2 ([1]; 100 nM, 24 h, without TNF-α) was 1.70 ± 0.016^a ng/mL, the PGD2 ([1]; 100 nM, 24 h, without TNF-α) was 0.24 ± 0.031^a ng/mL and the PGE2 ([1]; 100 nM, 24 h, without TNF-α) was 0.24 ± 0.022 ng/mL. The “mPGES1 (mRNA), mRNA production relative to controls” value ([2]; 1 nM + TNF-α (10 ng/mL), 4 h) was 1.11 ± 0.235, the “mPGES1 (mRNA), mRNA production relative to controls” value ([2]; 1 nM + TNF-α (10 ng/mL), 24 h) was 21.6 ± 4.28^ and the “mPGES1 (mRNA), mRNA production relative to controls” value ([2]; 1 nM, 4 h, without TNF-α) was 0.76 ± 0.053^b. The “mPGES1 (mRNA), mRNA production relative to controls” value ([2]; 1 nM, 24 h, without TNF-α) was 1.77 ± 0.324^a, the “mPGES1 (mRNA), mRNA production relative to controls” value ([2]; 10 nM + TNF-α (10 ng/mL), 4 h) was 1.15 ± 0.183 and the “mPGES1 (mRNA), mRNA production relative to controls” value ([2]; 10 nM + TNF-α (10 ng/mL), 24 h) was 6.29 ± 1.131^d. The “mPGES1 (mRNA), mRNA production relative to controls” value ([2]; 10 nM, 4 h, without TNF-α) was 0.94 ± 0.067, the “mPGES1 (mRNA), mRNA production relative to controls” value ([2]; 10 nM, 24 h, without TNF-α) was 3.61 ± 0.662^a and the “mPGES1 (mRNA), mRNA production relative to controls” value ([2]; 100 nM + TNF-α (10 ng/mL), 4 h) was 1.29 ± 0.323. For the same compound, the “mPGES1 (mRNA), mRNA production relative to controls” value [2, 3] was 6.79 ± 2.898^d, the “mPGES1 (mRNA), mRNA production relative to controls” value ([2]; 100 nM, 4 h, without TNF-α) was 0.71 ± 0.058^b and the “mPGES1 (mRNA), mRNA production relative to controls” value ([2]; 100 nM, 24 h, without TNF-α) was 2.63 ± 0.475^a.
